Common to all, as to format: functional, cell-based
Data set [1] concerns the target T1, Multidrug resistance-associated protein 1 (Homo sapiens, UniProt P33527). The data set is described as follows: TP_TRANSPORTER: increase in Calcein intracellular accumulation (Calcein: 0.5 uM, RU486: 50 uM) in GLC4/Sb30 cells. The conditions noted are these: glc4/sb30, 50 µM.
Data set [2] concerns the target T1, Multidrug resistance-associated protein 1. As to the kind of experiment: TP_TRANSPORTER: increase in Calcein intracellular accumulation (Calcein: 0.5 uM, Probenecid: 2000 uM) in GLC4/Sb30 cells. The conditions noted are these: glc4/sb30, 2000 µM.
Data set [3] shares this target. As to the kind of experiment: TP_TRANSPORTER: increase in Calcein intracellular accumulation (Calcein: 0.5 uM, Progesterone: 50 uM) in GLC4/Sb30 cells. The conditions noted are these: glc4/sb30, 50 µM.

T1 sequence (P33527 whole entry): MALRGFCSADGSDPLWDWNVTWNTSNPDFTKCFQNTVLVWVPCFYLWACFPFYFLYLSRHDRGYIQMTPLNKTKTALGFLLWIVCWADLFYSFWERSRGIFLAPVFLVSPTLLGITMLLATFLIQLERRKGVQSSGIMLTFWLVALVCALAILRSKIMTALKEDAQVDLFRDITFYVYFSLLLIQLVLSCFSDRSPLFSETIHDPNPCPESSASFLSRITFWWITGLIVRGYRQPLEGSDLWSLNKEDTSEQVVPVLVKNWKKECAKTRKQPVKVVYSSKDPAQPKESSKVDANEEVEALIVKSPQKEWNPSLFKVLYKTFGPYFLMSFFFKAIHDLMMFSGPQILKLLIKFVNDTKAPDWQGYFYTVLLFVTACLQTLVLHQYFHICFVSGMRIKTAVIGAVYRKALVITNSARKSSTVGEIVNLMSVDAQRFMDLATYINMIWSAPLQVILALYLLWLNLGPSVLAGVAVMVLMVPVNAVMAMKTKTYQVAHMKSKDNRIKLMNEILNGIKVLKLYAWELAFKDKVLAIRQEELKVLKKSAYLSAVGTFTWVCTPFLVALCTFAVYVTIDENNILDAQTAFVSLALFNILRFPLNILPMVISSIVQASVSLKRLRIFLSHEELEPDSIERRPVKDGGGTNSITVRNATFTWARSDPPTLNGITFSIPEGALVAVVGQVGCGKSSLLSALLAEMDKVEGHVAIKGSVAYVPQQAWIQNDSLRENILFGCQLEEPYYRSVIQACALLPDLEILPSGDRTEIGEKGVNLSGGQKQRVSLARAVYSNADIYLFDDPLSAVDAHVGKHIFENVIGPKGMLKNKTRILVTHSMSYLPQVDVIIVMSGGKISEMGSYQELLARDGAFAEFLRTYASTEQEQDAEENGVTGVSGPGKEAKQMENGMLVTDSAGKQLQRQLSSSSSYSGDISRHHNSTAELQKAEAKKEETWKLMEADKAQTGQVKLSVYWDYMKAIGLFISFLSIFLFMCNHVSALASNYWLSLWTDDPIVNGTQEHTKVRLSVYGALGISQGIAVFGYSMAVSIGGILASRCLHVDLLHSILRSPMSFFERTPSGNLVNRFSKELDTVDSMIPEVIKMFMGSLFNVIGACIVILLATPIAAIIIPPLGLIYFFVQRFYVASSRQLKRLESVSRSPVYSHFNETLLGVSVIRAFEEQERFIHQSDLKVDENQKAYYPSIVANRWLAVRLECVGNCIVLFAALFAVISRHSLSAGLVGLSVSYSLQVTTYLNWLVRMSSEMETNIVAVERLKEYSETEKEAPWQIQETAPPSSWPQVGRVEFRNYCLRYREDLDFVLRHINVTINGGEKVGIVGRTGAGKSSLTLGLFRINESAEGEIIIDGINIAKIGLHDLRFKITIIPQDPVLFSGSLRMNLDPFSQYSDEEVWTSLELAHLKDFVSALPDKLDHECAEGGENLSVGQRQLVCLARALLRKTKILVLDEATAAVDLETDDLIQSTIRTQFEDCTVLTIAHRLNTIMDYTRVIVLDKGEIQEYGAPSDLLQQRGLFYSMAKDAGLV

In the case of `CC#C[C@]1(O)CC[C@H]2[C@@H]3CCC4=CC(=O)CCC4=C3[C@@H](c3ccc(N(C)C)cc3)C[C@@]21C` [MIFEPRISTONE], the Activity result in data set [1] was “inhibitor [+]”.

Turning to `CCCN(CCC)S(=O)(=O)c1ccc(C(=O)O)cc1` [PROBENECID], the Activity entry in data set [2] was “inhibitor [+]”.

In the case of `CC(=O)[C@H]1CC[C@H]2[C@@H]3CCC4=CC(=O)CC[C@]4(C)[C@H]3CC[C@]12C` [PROGESTERONE], the Activity result in data set [3] was “inhibitor [+]”.

The record behind these values is ChEMBL document CHEMBL2074050, “Reversal of MRP-mediated multidrug resistance in human lung cancer cells by the antiprogestatin drug RU486” (Biochem Biophys Res Commun, 1999).
